For 14 compounds, Dmax and inhibition results are on record in US20240124418A1 (BioTheryX, Inc., priority 2020, published 2024).

One assay has as its target T1, PDE4B (Homo sapiens, UniProt Q07343).
T1 construct: endogenous in cells; host or cells: A549
Kind of assay: Protein degradation assay, western blot, PDE4B in A549 cells. In kind it is cell-based. Conditions: 24 h treatment, 'as high as about' = upper value for the group, read-out: PDE4B degradation relative to DMSO. The procedure:
Example B2. Protein Degradation Assay
A549 cells were grown in RPMI 1640 media supplemented with 10% fetal bovine serum, streptomycin, and penicillin. The cells were plated in 6-well plates at 300,000 cells/well in the growth media. After overnight incubation, the cells were treated with DMSO (control) or a compound at predetermined concentrations (e.g., 10 nM, 100 nM, 1 μM, 3 μM, or 10 μM) for 24 h at 37° C. under 5% CO2. Whole cell extracts were prepared using an immunoprecipitation (IP) lysis buffer. The cells were washed once in PBS, and the cell pellets were resuspended in the IP lysis buffer and incubated for 15 min on ice. Cells debris was removed by centrifugation and the cleared whole cell lysates were transferred to new tubes for further analysis.
For a western blot analysis, the whole cell protein extracts were separated on 4-12% SDS-polyacrylamide gels, transferred to nitrocellulose, and probed with primary antibodies. Membranes were subsequently washed and probed with IRDYE® secondary antibodies. The signals were detected using an ODYSSEY® Imaging System. The antibodies used in the assay included anti-PDE4B antibody; anti-PDE4D antibodies (top, bottom, and short isoform); β-actin mouse monoclonal antibody; IRDYE® 680RD goat anti-rabbit antibody; and IRDYE® 800CW goat anti-mouse antibody. The compounds provided herein are PDE4 protein degraders.
On the technique in general: In western blotting, separated proteins are transferred to a membrane and probed.

The next assay relates to TNF-α. Kind of assay: Cell-based TNF-α inhibition assay (LPS-induced PBMCs, Meso Scale). The settings on record: PBMC, PBMCs pretreated 1 h, LPS 100 ng/mL 18-24 h, percentage of stimulated DMSO control; for inhibition at 0.1 µM: compound concentration 0.1 μM; for inhibition at 1 µM: compound concentration 1 μM. The essentials: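 Thawed primary PBMCs (200,000 cells/well, RPMI 1640 with 10% FBS) were pretreated with compound for 1 h, then stimulated with 100 ng/mL LPS for 18–24 h. Supernatant TNF-α was measured by Meso Scale, and activity was expressed as percent inhibition relative to the stimulated DMSO control.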

Some results are limits rather than exact numbers.

In general, inhibition refers to the relative decrease from the control value, in per cent.

T1 sequence (Q07343 whole entry): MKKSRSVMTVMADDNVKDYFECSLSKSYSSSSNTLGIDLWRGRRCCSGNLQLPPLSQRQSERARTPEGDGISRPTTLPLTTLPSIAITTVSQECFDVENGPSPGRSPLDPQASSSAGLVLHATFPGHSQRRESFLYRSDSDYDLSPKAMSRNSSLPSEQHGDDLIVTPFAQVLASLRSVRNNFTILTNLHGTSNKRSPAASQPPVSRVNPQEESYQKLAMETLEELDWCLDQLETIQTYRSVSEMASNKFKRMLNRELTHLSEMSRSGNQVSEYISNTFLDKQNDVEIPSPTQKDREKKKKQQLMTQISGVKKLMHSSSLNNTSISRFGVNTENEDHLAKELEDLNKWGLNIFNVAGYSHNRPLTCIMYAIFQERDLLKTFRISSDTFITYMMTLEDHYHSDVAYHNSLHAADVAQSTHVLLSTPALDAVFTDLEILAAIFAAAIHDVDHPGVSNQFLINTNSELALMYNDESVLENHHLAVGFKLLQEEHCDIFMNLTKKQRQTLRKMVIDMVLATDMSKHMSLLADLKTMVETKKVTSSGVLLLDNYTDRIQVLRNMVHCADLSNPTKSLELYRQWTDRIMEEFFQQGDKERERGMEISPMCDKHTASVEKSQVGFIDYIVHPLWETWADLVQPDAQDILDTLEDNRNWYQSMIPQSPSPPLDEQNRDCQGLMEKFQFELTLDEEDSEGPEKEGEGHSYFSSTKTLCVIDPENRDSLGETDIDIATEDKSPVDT

As to `Cc1ncsc1-c1ccc(CNC(=O)[C@@H]2C[C@@H](O)CN2C(=O)[C@@H](NC(=O)CCCCCCCCCCOc2cc(C(=O)Nc3c(Cl)cncc3Cl)ccc2OC(F)F)C(C)(C)C)cc1` [Compound B21, (2S,4R)-1-((S)-2-(11-(5-((3,5-dichloropyridin-4-yl)carbamoyl)-2-(difluoromethoxy)phenoxy)undecanamido)-3,3-dimethylbutanoyl)-4-hydroxy-N-(4-(4-methyl-thiazol-5-yl)benzyl)pyrrolidine-2-carboxamide], on PDE4B, the Dmax was not above 70%.
Same read-out and setting: then `O=C1CCC(N2Cc3c(cc(F)cc3C3CCN(CCCCCCCCCCCCOc4cc(C(=O)Nc5c(Cl)cncc5Cl)ccc4OC(F)F)CC3)C2=O)C(=O)N1` (stereo not shown) [Compound B7, N-(3,5-Dichloropyridin-4-yl)-4-(difluoromethoxy)-3-((12-(4-(2-(2,6-dioxo-piperidin-3-yl)-6-fluoro-1-oxoisoindolin-4-yl)piperidin-1-yl)dodecyl)oxy)benzamide], with not above 70%; and `O=C1CCC(N2Cc3cc(C4CCN(CCCCCCCOc5cc(C(=O)Nc6c(Cl)cncc6Cl)ccc5OC(F)F)CC4)c(F)cc3C2=O)C(=O)N1` (stereo not shown) [Compound B3, N-(3,5-Dichloropyridin-4-yl)-4-(difluoromethoxy)-3-((7-(4-(2-(2,6-dioxopiperidin-3-yl)-6-fluoro-1-oxoisoindolin-5-yl)piperidin-1-yl)heptyl)oxy)benzamide], with not above 70%; and `CCOc1cc([C@@H](CS(C)(=O)=O)N2C(=O)c3cccc(NC(=O)CCCCCCCCNCc4ccc(OCc5scc6c5CN(C5CCC(=O)NC5=O)C6=O)cc4)c3C2=O)ccc1OC` (stereo partly drawn) [Compound A12, 9-((4-((5-(2,6-Dioxopiperidin-3-yl)-4-oxo-5,6-dihydro-4H-thieno[3,4-c]pyrrol-1-yl)methoxy)benzyl)amino)-N-(2-((S)-1-(3-ethoxy-4-methoxyphenyl)-2-(methylsulfonyl)ethyl)-1,3-dioxoisoindolin-4-yl)nonanamide], with not above 70%.
Still for that read-out and setting: then `CCOc1cc([C@@H](CS(C)(=O)=O)N2C(=O)c3cccc(NC(=O)CCCCCCCCCCCNc4cccc5c4C(=O)N(C4CCC(=O)NC4=O)C5=O)c3C2=O)ccc1OC` (stereo partly drawn) [Compound A6, 12-((2-(2,6-Dioxopiperidin-3-yl)-1,3-dioxoisoindolin-4-yl)amino)-N-(2-((S)-1-(3-ethoxy-4-methoxyphenyl)-2-(methylsulfonyl)ethyl)-1,3-dioxoisoindolin-4-yl)dodecanamide], with not above 70%; and `O=C1CCC(N2Cc3c(C#CC4CCN(C(=O)CCCCOc5cc(C(=O)Nc6c(Cl)cncc6Cl)ccc5OC(F)F)CC4)cccc3C2=O)C(=O)N1` (stereo not shown) [Compound B2, N-(3,5-Dichloropyridin-4-yl)-4-(difluoromethoxy)-3-((5-(4-((2-(2,6-dioxopiperidin-3-yl)-1-oxoisoindolin-4-yl)ethynyl)piperidin-1-yl)-5-oxopentyl)oxy)benzamide], with not above 70%.
On to `CCOc1cc([C@@H](CS(C)(=O)=O)N2C(=O)c3cccc(NC(=O)CCCCCN4CCC(N5CCC(c6cc7c(cc6F)C(=O)N(C6CCC(=O)NC6=O)C7)CC5)CC4)c3C2=O)ccc1OC` (stereo partly drawn) [Compound A29, 6-{4-[2-(2,6-Dioxopiperidin-3-yl)-6-fluoro-1-oxo-2,3-dihydro-1H-isoindol-5-yl]-[1,4′-bipiperidin]-1′-yl}-N-{2-[(1S)-1-(3-ethoxy-4-methoxyphenyl)-2-methanesulfonylethyl]-1,3-dioxo-2,3-dihydro-1H-isoindol-4-yl}hexanamide], for which, in the assay on TNF-α, the inhibition at 0.1 µM was 40 to 60% and the inhibition at 1 µM is not below 60%.
For `CCOc1cc([C@@H](CS(C)(=O)=O)N2C(=O)c3cccc(NC(=O)CCCCCCCCCN4CCN(CC(=O)Nc5ccc(C6CCC(=O)NC6=O)cc5)CC4)c3C2=O)ccc1OC` (stereo partly drawn) [Compound A86, 10-[4-({[4-(2,6-Dioxopiperidin-3-yl)phenyl]carbamoyl}methyl)piperazin-1-yl]-N-{2-[(1S)-1-(3-ethoxy-4-methoxyphenyl)-2-methanesulfonylethyl]-1,3-dioxo-2,3-dihydro-1H-isoindol-4-yl}decanamide], in that order: not below 60% and not below 60%.
The like results for `CCOc1cc([C@@H](CS(C)(=O)=O)N2C(=O)c3cccc(CCCCCCCCCCN4CCC(c5cc6c(cc5F)C(=O)N(C5CCC(=O)NC5=O)C6)CC4)c3C2=O)ccc1OC` (stereo partly drawn) [Compound A27, 4-(10-{4-[2-(2,6-Dioxopiperidin-3-yl)-6-fluoro-1-oxo-2,3-dihydro-1H-isoindol-5-yl]piperidin-1-yl}decyl)-2-[(1S)-1-(3-ethoxy-4-methoxyphenyl)-2-methanesulfonylethyl]-2,3-dihydro-1H-isoindole-1,3-dione] were, in that order, not below 60% and not below 60%.
For `CCOc1cc([C@@H](CS(C)(=O)=O)N2C(=O)c3cccc(CCCCCCCCCCNCc4ccc(OCc5scc6c5CN(C5CCC(=O)NC5=O)C6=O)cc4)c3C2=O)ccc1OC` (stereo partly drawn) [Compound A49, 4-(10-{[(4-{[5-(2,6-Dioxopiperidin-3-yl)-4-oxo-4H,5H,6H-thieno[3,4-c]pyrrol-1-yl]methoxy}phenyl)methyl]amino}decyl)-2-[(1S)-1-(3-ethoxy-4-methoxyphenyl)-2-methanesulfonylethyl]-2,3-dihydro-1H-isoindole-1,3-dione], in that order: not below 60% and not below 60%.
In the case of `CCOc1cc([C@@H](CS(C)(=O)=O)N2C(=O)c3cccc(NC(=O)CCCCCN4CCN(CC(=O)Nc5cccc(C6CCC(=O)NC6=O)c5)CC4)c3C2=O)ccc1OC` (stereo partly drawn) [Compound A87, 6-[4-({[3-(2,6-Dioxopiperidin-3-yl)phenyl]carbamoyl}methyl)piperazin-1-yl]-N-{2-[(1S)-1-(3-ethoxy-4-methoxyphenyl)-2-methanesulfonylethyl]-1,3-dioxo-2,3-dihydro-1H-isoindol-4-yl}hexanamide], in the assay on TNF-α, the inhibition at 0.1 µM is not below 60% and the inhibition at 1 µM was not below 60%.
Take `CCOc1cc([C@@H](CS(C)(=O)=O)N2C(=O)c3cccc(NC(=O)CCCCCCC4CN(Cc5ccc(OCc6scc7c6CN(C6CCC(=O)NC6=O)C7=O)cc5)CCO4)c3C2=O)ccc1OC` (stereo partly shown) [Compound A47]: in the assay on TNF-α, the inhibition at 0.1 µM is not below 60% and the inhibition at 1 µM was not below 60%.
For the compound `CCOc1cc([C@@H](CS(C)(=O)=O)N2C(=O)c3cccc(NC(=O)CCCCCCCN4CCN(CC(=O)Nc5ccc(C6CCC(=O)NC6=O)cc5)CC4)c3C2=O)ccc1OC` (stereo partly drawn) [Compound A84, 8-[4-({[4-(2,6-Dioxopiperidin-3-yl)phenyl]carbamoyl}methyl)piperazin-1-yl]-N-{2-[(1S)-1-(3-ethoxy-4-methoxyphenyl)-2-methanesulfonylethyl]-1,3-dioxo-2,3-dihydro-1H-isoindol-4-yl}octanamide], in the assay with TNF-α, the inhibition at 0.1 µM was not below 60% and the inhibition at 1 µM is not below 60%.
For the compound `O=C1CCC(N2Cc3c(csc3COc3ccc(CNCCCCCCCOc4cc(C(=O)Nc5c(Cl)cncc5Cl)ccc4OC(F)F)cc3)C2=O)C(=O)N1` (stereo not shown) [Compound B18, N-(3,5-Dichloropyridin-4-yl)-4-(difluoromethoxy)-3-((7-((4-((5-(2,6-dioxo-piperidin-3-yl)-4-oxo-5,6-dihydro-4H-thieno[3,4-c]pyrrol-1-yl)methoxy)benzyl)amino)heptyl)-oxy)benzamide], in the assay on TNF-α, the inhibition at 0.1 µM was not below 60% and the inhibition at 1 µM is not below 60%.
